The text below walks through data of patent publication US20250115598A1 (Anaxis Pharma Pty Ltd, priority 2021, published 2025).

pIC50, pKd: −log10 of the molar value. Where two headings read alike, the source gives them in different places.

The subject of assay [1] is U937 human histiocytic leukemia cell line. The assay can be described thus: Cellular assay: inhibition of TSQ induced necroptosis, CellTitre-Glo viability. Conditions: U937 cells, 48 hours, TSQ cocktail, read-out: Inhibition of TSQ-induced necroptosis (IC50 cell-based assay). The method, then: Cellular Assay: Screening Compounds for Inhibition of TSQ Induced Necroptosis, 384 Well Plate Format.
(§1) • Cell Line ID: U937 human histiocytic leukemia cell line. • Cell Concentration (cells/well): Final cell density is 20000 cells per well. • Cell growth medium: HT-RPMI medium+7.4% Fetal Bovine Serum (FBS). Cells are cultured in Corning 150 cm^2 tissue culture flasks with vented caps at 37° C./5% CO2. • Incubation: Plates were incubated at 37° C./5% CO2 in a humidified incubator for 48 hours following addition of compounds and death stimuli (TSQ cocktail). • Compound concentration: 36 μM starting concentration, 1:3 dilution, 10 point • DMSO final concentration (% v/v): 0.3%. Compounds in TSQ Cocktail (T: TNF; S: Smac Mimetic; Q: Q-VD-OPh) and their Final Concentrations: • hTNF-Fc (100 ng/ml)—produced by standard procedures as shown in Bossen et al., J. Biol. Chem., 2006, 281(20), 13964-13971. • Compound A (500 nM)—Smac mimetic, Tetralogic and SYNthesis med chem • Q-VD-OPh (10 μM)—MP Biomedicals
(§2) The cellular assay was carried out according to the following steps: • 1. Each well was prepared by sequential addition of: • a. DMSO (control; columns 1-2 and 23-24) or compound in DMSO—addition was performed using acoustic transfer of nL volumes of stock compound to give final test concentrations of 36, 12, 4, 1.3, 0.44, 0.148, 0.049, 0.016, 0.005 and 0.002 μM. All wells were backfilled with DMSO to a final total volume in the well of 100 nL. • b. Following compound/DMSO addition in step (a), 40 μL of cell suspension (5×10^5 cells/mL) was added to provide a final cell concentration of 20,000 cells per well, and • c. Following cell addition in step (b), 10 μL of 5×TSQ cocktail (except to positive controls; columns 1 and 23) was added to each well. • 2. After 48 hours, plate was removed from the 37° C. incubator and equilibrated to room temperature for 45 minutes. • 3.15 μL of room temperature CellTitre-Glo2™ (Promega™) was added to each well. • 4. Shook plates for 2 minutes (˜600 rpm) and incubated at room temperature for 15 minutes to allow signal to stabilise. • 5. Read luminescence readout on a plate reader.
Percent viability was calculated for each compound according to equation (2):
(§3) • Assay involving the TSQ cocktail (T: TNF; S: Smac mimetic; Q: Q-VD-OPh): TSQ treatment ensures that cells specifically undergo necroptotic cell death. TNF activates the TNF receptor, Smac mimetic directs the signal away from proinflammatory signaling and toward the RIPK1/RIPK3-mediated cell death pathways, and Q-VD-OPh ensures that the apoptotic response is blocked leaving only the programmed necrosis response. The compounds' activity (solution in DMSO) tested in this TSQ-induced assay was evaluated by determining the number of viable cells in culture by measuring the amount of ATP present as measured by CelltiterGlo. • Counter screen: In parallel, all compounds were tested for their ability to affect cell viability. The same U937 cells were treated with compound in DMSO without the TSQ cocktail. This counter screen enabled evaluation of off-target effects. In this case, cell viability was measured by CelltiterGlo.

The subject of another assay is U937 cells. The experiment in a line: Counter screen: cell viability without the TSQ cocktail (off-target effect). The arrangement: species or system human. As for the experimental part: as §1, §2, §3
In general terms: The purpose of a counterscreen is to sort out artefacts and off-target activity.

In assay [2] the test system is Immortalised Mouse Dermal Fibroblasts (MDFs). The experiment in a line: Cellular assay: inhibition of TSI induced necroptosis, CellTitre-Glo viability. Conditions: Mus musculus, Fibroblast, MDF, 3 hours TSI cocktail, read-out: Inhibition of TSI-induced necroptosis (IC50 cell-based assay) in MDF. A digest of the protocol: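 Immortalised mouse dermal fibroblasts (2200 cells/well) pretreated 30 min with compound, 10-point 1:3 series from 36 μM, 0.3% DMSO. Then 3 h at 37° C. with TNF (100 ng/ml), Smac mimetic (500 nM) and IDN-6556 (10 μM). CellTiter-Glo luminescence normalised to DMSO (100%) and DMSO+TSI (0%); IC50 from 4-parameter logistic fit.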

Another assay addresses human MLKL (full length) (Homo sapiens (Human), UniProt Q8NB16). The experiment in a line: KINOMEscan binding assay, human MLKL (full length). A digest of the protocol: (§4)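 Active-site competition binding: DNA-tagged kinase (T7 phage fusion from BL21-derived E. coli lysate, or HEK-293-expressed) captured on immobilized-ligand beads, with bound kinase in the eluate quantified by qPCR. Compounds ran as 11-point 3-fold dilutions, 1% DMSO, top 30,000 nM for most. Kd came from a Hill fit (slope −1).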

A further assay has as its target human RIPK3 (Homo sapiens (Human), UniProt Q9Y572). The experiment in a line: KINOMEscan binding assay, human RIPK3. Particulars: Table 21. A digest of the protocol:
as §4

For another assay, the target named is human RIPK1 (Homo sapiens (Human), UniProt Q13546). The assay can be described thus: KINOMEscan binding assay, human RIPK1. Conditions: Table 21. An outline of the steps: as §4
Sequence of human RIPK1 (Q13546 whole entry): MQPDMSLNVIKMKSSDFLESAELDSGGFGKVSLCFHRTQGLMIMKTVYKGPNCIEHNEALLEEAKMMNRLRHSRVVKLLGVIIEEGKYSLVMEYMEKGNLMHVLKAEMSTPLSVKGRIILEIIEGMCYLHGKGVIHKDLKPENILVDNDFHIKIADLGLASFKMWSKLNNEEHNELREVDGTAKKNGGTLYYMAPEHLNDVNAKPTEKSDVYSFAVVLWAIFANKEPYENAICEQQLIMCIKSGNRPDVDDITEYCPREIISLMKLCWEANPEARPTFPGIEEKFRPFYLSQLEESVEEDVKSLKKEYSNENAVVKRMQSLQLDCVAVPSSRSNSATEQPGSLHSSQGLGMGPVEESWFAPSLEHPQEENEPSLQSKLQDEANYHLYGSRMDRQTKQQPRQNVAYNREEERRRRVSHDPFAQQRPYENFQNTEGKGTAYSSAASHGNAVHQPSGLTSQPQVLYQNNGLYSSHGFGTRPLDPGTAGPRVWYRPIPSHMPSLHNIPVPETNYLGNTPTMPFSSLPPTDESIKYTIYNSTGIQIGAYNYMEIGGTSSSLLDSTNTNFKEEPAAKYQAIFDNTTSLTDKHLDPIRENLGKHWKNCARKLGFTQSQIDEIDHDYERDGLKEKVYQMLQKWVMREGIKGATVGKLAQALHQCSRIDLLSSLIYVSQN
[3] abbreviates: Homo sapiens, U-937, Table 26, read-out: Off-target effect (IC50 cell-based assay).
Where [4] appears, read: hMLKL, Table 25, read-out: MLKL (KD).
The mark [5] stands for this setting: Homo sapiens, U-937, Table 23, read-out: Off-target effect (IC50 cell-based assay).
The mark [6] stands for this setting: KINOMEscan, Table 21, read-out: Human MLKL (full-length) (KD).
[7] abbreviates: Table 23, read-out: Off-target effect (IC50 cell-based assay).

Sequence of human MLKL (full length) (Q8NB16 whole entry, the tested form may be a part): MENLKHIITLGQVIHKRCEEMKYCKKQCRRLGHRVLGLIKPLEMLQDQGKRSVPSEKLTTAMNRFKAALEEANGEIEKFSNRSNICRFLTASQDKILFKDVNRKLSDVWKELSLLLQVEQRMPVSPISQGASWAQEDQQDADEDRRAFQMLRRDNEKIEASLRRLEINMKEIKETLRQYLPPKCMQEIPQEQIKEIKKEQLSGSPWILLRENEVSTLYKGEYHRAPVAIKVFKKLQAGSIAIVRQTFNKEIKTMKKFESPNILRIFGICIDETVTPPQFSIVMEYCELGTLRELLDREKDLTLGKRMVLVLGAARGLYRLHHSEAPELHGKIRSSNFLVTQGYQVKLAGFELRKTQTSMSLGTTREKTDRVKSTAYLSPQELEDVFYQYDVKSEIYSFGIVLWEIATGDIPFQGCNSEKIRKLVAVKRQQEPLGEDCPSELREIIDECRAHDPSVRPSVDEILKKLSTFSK
Sequence of human RIPK3 (Q9Y572 whole entry): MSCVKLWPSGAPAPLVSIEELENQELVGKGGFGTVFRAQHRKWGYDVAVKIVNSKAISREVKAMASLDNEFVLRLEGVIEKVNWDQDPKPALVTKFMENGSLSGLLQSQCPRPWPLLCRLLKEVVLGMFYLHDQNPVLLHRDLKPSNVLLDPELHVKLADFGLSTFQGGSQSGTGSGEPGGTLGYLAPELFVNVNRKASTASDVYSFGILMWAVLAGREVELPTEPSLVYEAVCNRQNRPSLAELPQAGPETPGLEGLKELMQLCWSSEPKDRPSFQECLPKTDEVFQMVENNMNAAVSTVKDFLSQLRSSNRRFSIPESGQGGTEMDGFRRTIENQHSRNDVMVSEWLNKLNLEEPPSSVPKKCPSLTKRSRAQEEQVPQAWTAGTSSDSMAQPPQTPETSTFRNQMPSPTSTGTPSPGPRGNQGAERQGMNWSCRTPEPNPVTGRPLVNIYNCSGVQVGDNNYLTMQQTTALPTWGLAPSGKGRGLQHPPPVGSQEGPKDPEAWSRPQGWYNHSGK

A word on the pIC50: it is −log10 of the IC50, conventionally taken in molar units. Turning to `Cc1ncsc1-c1ccc(CNC(=O)[C@@H]2C[C@@H](O)CN2C(=O)[C@@H](NC(=O)CN2CCC(n3cc(-c4cnc(N)c5c(-c6ccc(NS(=O)(=O)C(F)F)c(O[C@@H](C)c7ccc(F)cc7)c6)nn(C)c45)cn3)CC2)C(C)(C)C)cc1` [Compound 1016, (2S,4R)-1-[(2S)-2-{2-[4-(4-{4-amino-3-[4-(difluoromethanesulfonamido)-3-[(1S)-1-(4-fluorophenyl)ethoxy]phenyl]-1-methyl-1H-pyrazolo[4,3-c]pyridin-7-yl}-1H-pyrazol-1-yl)piperidin-1-yl]acetamido}-3,3-dimethylbutanoyl]-4-hydroxy-N-{[4-(4-methyl-1,3-thiazol-5-yl)phenyl]methyl}pyrrolidine-2-carboxamide], the pIC50 is greater than 6.00 in assay [1] (Homo sapiens, U-937, Table 26); less than 5.00 in the assay on U937 cells (setting [3]); greater than 6.00 in assay [2] (Table 27).
In general, pKd refers to the negative decadic logarithm of the Kd, by convention in mol/L. On to `CCS(=O)(=O)Nc1ccc(-c2n[nH]c3c(-c4cnn(CCOCC(=O)N[C@H](C(=O)N5C[C@H](O)C[C@H]5C(=O)NCc5ccc(-c6scnc6C)cc5)C(C)(C)C)c4)cnc(N)c23)cc1OCc1ccc(F)cc1` [Compound 1004, (2S,4R)-1-[(2S)-2-(2-{2-[4-(4-amino-3-{4-ethanesulfonamido-3-[(4-fluorophenyl)methoxy]phenyl}-1H-pyrazolo[4,3-c]pyridin-7-yl)-1H-pyrazol-1-yl]ethoxy}acetamido)-3,3-dimethylbutanoyl]-4-hydroxy-N-{[4-(4-methyl-1,3-thiazol-5-yl)phenyl]methyl}pyrrolidine-2-carboxamide], for which the negative-log Kd (pKd) on human MLKL (full length) (setting [4]) was greater than 8.00. Moreover, the pIC50 in assay [1] (Homo sapiens, U-937, Table 26) is less than 5.00; with U937 cells (setting [3]), less than 5.00.
As to `C[C@H](Oc1cc(-c2nn(C)c3c(-c4cnn([C@@H]5CCN(C)C(C)(C)C5)c4)cnc(N)c23)ccc1NS(=O)(=O)C(F)F)c1ccc(F)cc1` (single isomer, unassigned) [Compound 154, N-(4-(4-amino-1-methyl-7-(1-((R*)-1,2,2-trimethylpiperidin-4-yl)-1H-pyrazol-4-yl)-1H-pyrazolo[4,3-c]pyridin-3-yl)-2-((S)-1-(4-fluorophenyl)ethoxy)phenyl)-1,1-difluoromethanesulfonamide], the pKd at human RIPK3 and on human RIPK1 was less than 5.00 each time. Besides, the negative logarithm of the IC50 (pIC50) was greater than 8.00 in assay [1] (Homo sapiens, U-937, Table 23) and less than 5.00 with U937 cells (setting [5]).
As to `Cc1ncsc1-c1ccc(CNC(=O)[C@@H]2C[C@@H](O)CN2C(=O)[C@H](NC(=O)C2(F)CC2)C(C)(C)C)c(OCCCCCCCn2cc(-c3cnc(N)c4c(-c5ccc(NS(=O)(=O)C(F)F)c(O[C@@H](C)c6ccc(F)cc6)c5)nn(C)c34)cn2)c1` [Compound 1030, (2S,4R)—N-[(2-{[7-(4-{4-amino-3-[4-(difluoromethanesulfonamido)-3-[(1S)-1-(4-fluorophenyl)ethoxy]phenyl]-1-methyl-1H-pyrazolo[4,3-c]pyridin-7-yl}-1H-pyrazol-1-yl)heptyl]oxy}-4-(4-methyl-1,3-thiazol-5-yl)phenyl)methyl]-1-[(2R)-2-[(1-fluorocyclopropyl)formamido]-3,3-dimethylbutanoyl]-4-hydroxypyrrolidine-2-carboxamide], the negative logarithm of the Kd (pKd) on human MLKL (full length) (setting [4]) was 6.00 to 8.00. In addition, the negative logarithm of the IC50 (pIC50) in assay [1] (Homo sapiens, U-937, Table 26) is greater than 6.00; with U937 cells (setting [3]), less than 5.00.
For the compound `CNc1ncc(-n2cc(-c3cnc(N)c4c(-c5ccc(NS(=O)(=O)C(F)F)c(O[C@@H](C)c6ccc(F)cc6)c5)nn(C)c34)cn2)cn1` [Compound 138, (S)-N-(4-(4-amino-1-methyl-7-(1-(2-(methylamino)pyrimidin-5-yl)-1H-pyrazol-4-yl)-1H-pyrazolo[4,3-c]pyridin-3-yl)-2-(1-(4-fluorophenyl)ethoxy)phenyl)-1,1-difluoromethanesulfonamide], the negative logarithm of the Kd (pKd) at human MLKL (full length) (setting [6]) was 7.00 to 9.00; on human RIPK3, less than 5.00; at human RIPK1 it was less than 5.00. In addition, the negative logarithm of the IC50 (pIC50) was 6.00 to 8.00 in assay [1] (Table 23) and less than 5.00 with U937 cells (setting [7]).
Turning to `C[C@H](Oc1cc(-c2nn(C)c3c(-c4cnn(C5CCN(C)C(C)(C)C5)c4)cnc(N)c23)ccc1NS(=O)(=O)C(F)F)c1ccc(F)cc1` (single isomer, unassigned) [Compound 155, N-(4-(4-amino-1-methyl-7-(1-((S*)-1,2,2-trimethylpiperidin-4-yl)-1H-pyrazol-4-yl)-1H-pyrazolo[4,3-c]pyridin-3-yl)-2-((S)-1-(4-fluorophenyl)ethoxy)phenyl)-1,1-difluoromethanesulfonamide], the pIC50 in assay [1] (Homo sapiens, U-937, Table 23) is greater than 8.00; in the assay with U937 cells (setting [5]), less than 5.00; in assay [2] (Table 24), greater than 6.00.
On to `Cc1ncsc1-c1ccc(CNC(=O)[C@@H]2C[C@@H](O)CN2C(=O)[C@@H](NC(=O)COCCOCCn2cc(-c3cnc(N)c4c(-c5ccc(NS(=O)(=O)C(F)F)cc5)nn(C)c34)cn2)C(C)(C)C)cc1` [Compound 1021], for which the pKd on human MLKL (full length) (setting [4]) is greater than 8.00. Also, the pIC50 in assay [1] (Homo sapiens, U-937, Table 26) was 5.00 to 6.00; in the assay on U937 cells (setting [3]), less than 5.00.
With `C[C@H](Oc1cc(-c2nn(C)c3c(-c4ccc(N5CCNCC5)nc4)cnc(N)c23)ccc1NS(=O)(=O)C(F)F)c1ccc(F)cc1` [Compound 108], the pKd at human MLKL (full length) (setting [6]) was greater than 9.00; at human RIPK3, less than 5.00; at human RIPK1, less than 5.00. The pIC50 is 6.00 to 8.00 in assay [1] (Table 23) and less than 5.00 in the assay with U937 cells (setting [7]).
For the compound `CCS(=O)(=O)Nc1ccc(-c2nn(C)c3c(-c4ccncc4)cnc(N)c23)cc1OCc1ccc(F)cc1` [Compound 1, N-(4-(4-amino-1-methyl-7-(pyridin-4-yl)-1H-pyrazolo[4,3-c]pyridin-3-yl)-2-((4-fluorobenzyl)oxy)phe-nyl)ethanesulfonamide], the pKd at human MLKL (full length) (setting [6]) was 7.00 to 9.00; on human RIPK3, less than 5.00; at human RIPK1, less than 5.00. Further, the pIC50 in assay [1] (Homo sapiens, U-937, Table 23) is 5.00 to 6.00; in the assay on U937 cells (setting [5]) it was less than 5.00.
`CCS(=O)(=O)Nc1ccc(-c2n[nH]c3c(-c4cnn(CCC(=O)N[C@H](C(=O)N5C[C@H](O)C[C@H]5C(=O)NCc5ccc(-c6scnc6C)cc5)C(C)(C)C)c4)cnc(N)c23)cc1OCc1ccc(F)cc1` [Compound 1001, (2S,4R)-1-[(2S)-2-{3-[4-(4-amino-3-{4-ethanesulfonamido-3-[(4-fluorophenyl)methoxy]phenyl}-1H-pyrazolo[4,3-c]pyridin-7-yl)-1H-pyrazol-1-yl]propanamido}-3,3-dimethylbutanoyl]-4-hydroxy-N-{[4-(4-methyl-1,3-thiazol-5-yl)phenyl]methyl}pyrrolidine-2-carboxamide]: the negative logarithm of the Kd (pKd) at human MLKL (full length) (setting [4]) was greater than 8.00. Besides, the negative-log IC50 (pIC50) in assay [1] (Homo sapiens, U-937, Table 26) was less than 5.00; in the assay on U937 cells (setting [3]), less than 5.00.
